Measurements from ChEMBL document CHEMBL4828771, “Discovery and Development of a Potent, Selective, and Orally Bioavailable CHK1 Inhibitor Candidate: 5-((4-((3-Amino-3-methylbutyl)amino)-5-(trifluoromethyl)pyrimidin-2-yl)amino)picolinonitrile” (J Med Chem, 2021).
pIC50: −log10 of the molar value. Values belong to the compound of their own block, whether it stands above or below them. The source made the active and inactive calls. No cut-off for these calls is given here.

Key:
[1] = system: HT-29; assay: Induction of gamma-H2A.X in human HT-29 cells at 40 nM incubated for 24 hrs by Western blot analysis; type: functional, cell-based
[2] = system: HT-29; assay: Antitumor activity against human HT-29 cells xenografted in mouse assessed as reduction in tumor growth by measuring T/C ratio at 100 mg/kg, iv dosed once a week for 22 days measured twice every week; type: functional; details: time 22 day
[3] = system: Mus musculus; assay: Induction of S296 phosphorylation in tumor of mouse xenografted with human HT-29 cells at 100 mg/kg, iv dosed once a week for 22 days by Western blot analysis; type: functional, organism-based; details: time 22.0 day
[4] = system: Mus musculus; assay: Induction of S345 phosphorylation in tumor of mouse xenografted with human HT-29 cells at 100 mg/kg, iv dosed once a week for 22 days by Western blot analysis; type: functional, organism-based; details: time 22.0 day
[5] = biological target: T1, Serine/threonine-protein kinase Chk1 (Homo sapiens) (UniProt O14757); assay: Inhibition of CHK1 in human HT-29 cells assessed as increase in phosphorylation at S345 residue at 40 nM incubated for 24 hrs by Western blot analysis; type: cell-based
T1 sequence (whole entry): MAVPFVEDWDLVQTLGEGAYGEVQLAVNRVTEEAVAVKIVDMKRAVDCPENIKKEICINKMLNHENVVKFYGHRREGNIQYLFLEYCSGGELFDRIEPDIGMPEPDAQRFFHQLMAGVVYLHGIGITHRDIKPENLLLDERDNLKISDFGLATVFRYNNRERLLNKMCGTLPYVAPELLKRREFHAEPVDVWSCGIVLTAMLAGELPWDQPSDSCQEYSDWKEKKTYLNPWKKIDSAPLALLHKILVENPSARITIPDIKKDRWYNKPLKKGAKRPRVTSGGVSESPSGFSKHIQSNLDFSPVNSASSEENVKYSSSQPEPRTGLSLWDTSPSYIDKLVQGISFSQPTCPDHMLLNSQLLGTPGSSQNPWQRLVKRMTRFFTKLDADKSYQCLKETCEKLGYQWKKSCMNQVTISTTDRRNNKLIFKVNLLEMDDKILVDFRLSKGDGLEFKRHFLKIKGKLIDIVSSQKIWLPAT

[6] = biological target: T1, Serine/threonine-protein kinase Chk1 (Homo sapiens); assay: Inhibition of CHK1 in human HT-29 cells assessed as […] residue at 40 nM incubated for 24 hrs by Western blot analysis; type: cell-based
[7] = AUC(0 to infinity) in ICR mouse at 10 mg/kg, po measured after 0.083 to 48 hrs by LC-MS/MS analysis; type: ADME, organism-based; set-up: route oral, time lower 0.083 hrs, dose 10 mg/kg, time upper 48 hrs; details: in vivo
[8] = Half life in ICR mouse at 10 mg/kg, po measured after 0.083 to 48 hrs by LC-MS/MS analysis; type: ADME, organism-based; details: in vivo, time 0.083-48 hrs
[9] = MRT(0 to infinity) in ICR mouse at 10 mg/kg, po measured after 0.083 to 48 hrs by LC-MS/MS analysis; type: ADME, organism-based; details: in vivo, time 0.083-48 hrs
[10] = system: MV4-11; assay: Antiproliferation activity against human MV4-11 cells assessed as reduction in cell viability incubated for 72 hrs by MTS assay; type: functional, cell-based; details: MV4-11, 72 h
[11] = biological target: T2, Serine/threonine-protein kinase Chk1 (Homo sapiens, UniProt O14757); assay: Inhibition of CHK1 (unknown origin) incubated for 1 hr in presence of ATP by HTRF assay
T2 sequence (O14757 whole entry): T1 sequence (whole entry)

[12] = Tmax in ICR mouse at 10 mg/kg, po measured after 0.083 to 48 hrs by LC-MS/MS analysis; type: ADME, organism-based; details: in vivo, time 0.083-48 hrs
[13] = Cmax in ICR mouse at 10 mg/kg, po measured after 0.083 to 48 hrs by LC-MS/MS analysis; type: ADME, organism-based; set-up: route oral, time upper 48 hrs, dose 10 mg/kg, time lower 0.083 hrs; details: in vivo
[14] = AUCt in ICR mouse at 10 mg/kg, po measured after 0.083 to 48 hrs by LC-MS/MS analysis; type: ADME, organism-based; set-up: route oral, dose 10 mg/kg, time 0.083-48 hrs; details: in vivo
[15] = system: Z-138; assay: Antiproliferation activity against human Z138 cells assessed as reduction in cell viability incubated for 72 hrs by MTS assay; type: functional, cell-based; details: Z-138, 72 h
[16] = biological target: hERG (KCNH2) (Homo sapiens, UniProt Q12809); assay: Inhibition of human ERG expressed in HEK293 cells at 10 uM by patch-clamp technique relative to control; type: cell-based; details: HEK293 cells that express hERG
Sequence of hERG (KCNH2) (Q12809 whole entry): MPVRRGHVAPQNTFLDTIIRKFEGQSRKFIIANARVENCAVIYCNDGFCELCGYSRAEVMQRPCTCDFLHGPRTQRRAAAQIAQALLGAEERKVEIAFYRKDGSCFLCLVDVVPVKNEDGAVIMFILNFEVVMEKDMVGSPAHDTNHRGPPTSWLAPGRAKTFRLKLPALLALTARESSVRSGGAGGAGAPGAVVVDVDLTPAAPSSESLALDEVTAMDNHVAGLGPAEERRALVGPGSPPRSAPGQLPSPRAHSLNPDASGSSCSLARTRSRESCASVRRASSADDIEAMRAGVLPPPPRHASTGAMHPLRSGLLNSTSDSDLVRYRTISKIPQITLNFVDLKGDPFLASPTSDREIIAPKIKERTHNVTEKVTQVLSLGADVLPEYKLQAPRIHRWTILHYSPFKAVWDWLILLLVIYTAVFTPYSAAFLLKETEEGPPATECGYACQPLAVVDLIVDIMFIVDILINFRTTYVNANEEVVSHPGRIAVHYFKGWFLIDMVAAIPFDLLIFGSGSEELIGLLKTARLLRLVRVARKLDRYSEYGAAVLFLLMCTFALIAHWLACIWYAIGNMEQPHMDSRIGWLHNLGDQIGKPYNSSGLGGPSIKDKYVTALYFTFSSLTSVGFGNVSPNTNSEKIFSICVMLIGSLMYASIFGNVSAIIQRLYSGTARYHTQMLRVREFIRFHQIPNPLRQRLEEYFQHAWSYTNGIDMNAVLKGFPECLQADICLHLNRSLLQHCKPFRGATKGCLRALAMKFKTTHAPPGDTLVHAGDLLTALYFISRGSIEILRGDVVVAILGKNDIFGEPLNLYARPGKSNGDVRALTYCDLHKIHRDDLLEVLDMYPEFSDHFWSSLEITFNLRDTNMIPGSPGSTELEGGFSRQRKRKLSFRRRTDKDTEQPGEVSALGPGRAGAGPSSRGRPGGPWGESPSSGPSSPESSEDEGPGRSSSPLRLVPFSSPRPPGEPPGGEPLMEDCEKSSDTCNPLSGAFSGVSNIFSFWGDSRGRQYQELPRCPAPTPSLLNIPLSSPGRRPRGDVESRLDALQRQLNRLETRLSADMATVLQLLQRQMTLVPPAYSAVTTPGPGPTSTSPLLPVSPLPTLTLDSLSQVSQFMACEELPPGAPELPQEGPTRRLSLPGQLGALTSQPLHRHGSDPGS

[17] = Cmax in ICR mouse at 20 mg/kg, po measured after 0.083 to 48 hrs by LC-MS/MS analysis; type: ADME, organism-based; set-up: route oral, time upper 48 hrs, time lower 0.083 hrs, dose 20 mg/kg; details: in vivo
[18] = Half life in ICR mouse at 20 mg/kg, po measured after 0.083 to 48 hrs by LC-MS/MS analysis; type: ADME, organism-based; details: in vivo, time 0.083-48 hrs
[19] = system: MV4-11; assay: Antitumor activity against human MV4-11 cells xenografted in mouse assessed as inhibition of tumor growth by measuring T/C ratio at 30 mg/kg, po dosed 5 days/week for 3 weeks measured twice every week; type: functional
[20] = AUCt in ICR mouse at 20 mg/kg, po measured after 0.083 to 48 hrs by LC-MS/MS analysis; type: ADME, organism-based; set-up: route oral, dose 20 mg/kg, time 0.083-48 hrs; details: in vivo
[21] = Tmax in ICR mouse at 20 mg/kg, po measured after 0.083 to 48 hrs by LC-MS/MS analysis; type: ADME, organism-based; details: in vivo, time 0.083-48 hrs
[22] = MRT (0 to infinity) in ICR mouse at 20 mg/kg, po measured after 0.083 to 48 hrs by LC-MS/MS analysis; type: ADME, organism-based; details: in vivo, time 0.083-48 hrs
[23] = AUC (0 to infinity) in ICR mouse at 20 mg/kg, po measured after 0.083 to 48 hrs by LC-MS/MS analysis; type: ADME, organism-based; set-up: route oral, time upper 48 hrs, time lower 0.083 hrs, dose 20 mg/kg; details: in vivo

Activity [5]: Active | Activity [6]: Active
Structure (SMILES): Nc1ccn([C@@H]2O[C@H](CO)[C@@H](O)C2(F)F)c(=O)n1 [GEMCITABINE]
Activity [1]: Active | T/C [2]: 57.7% | Activity [3]: Active | Activity [4]: Active

AUC(0-inf) [7]: 1440 ng·h/mL | half-life [8]: 2.88 h | MRT inf [9]: 3.37 h | pIC50 [10]: 7.30 | pIC50 [11]: 7.48 | Tmax [12]: 1.42 h | Cmax [13]: 371 ng/mL | AUC(0-t) [14]: 1430 ng·h/mL
Structure (SMILES): N#Cc1ccc(Nc2ncc(C(F)(F)F)c(N[C@H]3CC[C@H](N)CC3)n2)cn1
pIC50 [15]: 6.17 | inhibition at 10 µM [16]: 47.9%

Cmax [17]: 1530 ng/mL | half-life [18]: 4.12 h | AUC(0-t) [20]: 6600 ng·h/mL | pIC50 [10]: 6.62 | Tmax [21]: 0.5 h | MRT inf [22]: 5.62 h | pIC50 [11]: 7.89 | AUC(0-inf) [23]: 6700 ng·h/mL
Structure (SMILES): CNCCCNc1nc(Nc2ccc(C#N)nc2)ncc1C(F)(F)F
T/C [19]: 35.36% | pIC50 [15]: 6.52 | inhibition at 10 µM [16]: 73.3%
